Data as given in article PMC3040889, “Synthesis and Biological Evaluation of Delavayin-C” (Indian Journal of Pharmaceutical Sciences, 2008).
Residues, ends and D or L forms follow the SMILES beside them.

How the values were obtained:
Assay type in all cases: cell-based
Bacillus subtilis [1] = experiment: microbe, parasite or virus in culture; conditions: disc diffusion, 50 μg/ml
Method: (§1) The synthesized cyclic heptapeptide was screened in vitro for its antibacterial and antifungal activity by using disc diffusion method and tube dilution technique. The antibacterial activity was determined against four bacterial species (B. subtilis, S. aureus, E. coli and P. aeruginosa) and antifungal activity against Candida albican. In the disc diffusion method, the activity studies were carried out according to modified Kirby-Bauer method. Benzyl penicillin and fluconazole were used as standards against bacterial and fungal strains, respectively at a concentration of 50 μg/ml. Nutrient broth and Sabourds agar were used as a medium and dimethylformamide (DMF) was used as a solvent control for carrying out the activity. After preparation of the disc, allowed to stand for 24 h at 37°. The zone of inhibition, observed around the disks after incubation, was measured.

Candida albicans [2] = experiment: microbe, parasite or virus in culture; conditions: disc diffusion, 50 μg/ml
Method: as §1

Escherichia coli [3] = experiment: microbe, parasite or virus in culture; conditions: disc diffusion, 50 μg/ml
Method: as §1

Psuedomonas aeruginosa [4] = experiment: microbe, parasite or virus in culture; conditions: disc diffusion, 50 μg/ml
Method: as §1

Staphylococcus aureus [5] = experiment: microbe, parasite or virus in culture; conditions: disc diffusion, 50 μg/ml
Method: as §1

Bacillus subtilis [6] = experiment: tube dilution technique for minimum inhibitory concentration; design: key: (+) indicates presence of growth (no activity); –: absence of growth; conditions: B. subtilis, nutrient broth, 37° for 24 h, turbidity
Method: (§2) Compound inhibiting growth of microorganisms was further tested for minimum inhibitory concentration (MIC). A solution of the compound was prepared in DMF and a series of doubling dilutions prepared with sterile pipettes. To each of a series of sterile stoppered test tubes, a standard volume of nutrient broth medium was added. A control tube containing no antimicrobial agent was included. The inoculum consisting of an overnight broth culture of microorganisms was added to separate tubes. The tubes were incubated at 37° for 24 h and examined for turbidity. The tube with highest dilution showing no turbidity was the one containing compound with MIC.

Candida albicans [7] = experiment: as above; design: key: (+) indicates presence of growth (no activity); –: absence of growth; conditions: C. albicans, broth medium, 37° for 24 h, turbidity
Method: as §2

Escherichia coli [8] = experiment: as above; design: key: (+) indicates presence of growth (no activity); –: absence of growth; conditions: E. coli, nutrient broth, 37° for 24 h, turbidity
Method: as §2

Psuedomonas aeruginosa [9] = experiment: as above; design: key: (+) indicates presence of growth (no activity); –: absence of growth; conditions: P. aeruginosa, nutrient broth, 37° for 24 h, turbidity
Method: as §2

Staphylococcus aureus [10] = experiment: as above; design: key: (+) indicates presence of growth (no activity); –: absence of growth; conditions: S. auereus, nutrient broth, 37° for 24 h, turbidity
Method: as §2

[11] = 24 h at 37°, DMF solvent control

## CC(C)[C@@H]1NC(=O)[C@@H]2CCCN2C(=O)[C@H](Cc2ccc(O)cc2)NC(=O)[C@H](Cc2ccc(O)cc2)NC(=O)[C@H](Cc2ccc(O)cc2)NC(=O)CNC(=O)[C@@H]2CCCN2C1=O [Compound, delavayin-C, cyclo(gly-tyr-tyr-tyr-pro-val-pro)] (cyclo(GYYYPVP))
Bacillus subtilis [1]
  activity against B. subtilis when compared with standard drug benzyl penicillin (in words): moderate activity
Bacillus subtilis [1]; [11]
  Diameter of zone of inhibition, B. Subtilis: 15 mm
Candida albicans [2]
  inhibition of growth against Candida albicans (in words): moderate inhibition of growth
Candida albicans [2]; [11]
  Diameter of zone of inhibition, C. albicans: 18 mm
Escherichia coli [3]
  activity against E. coli when compared with standard drug benzyl penicillin (in words): less activity
Escherichia coli [3]; [11]
  Diameter of zone of inhibition, E. coli: 10 mm
Psuedomonas aeruginosa [4]
  activity against P. aeruginosa when compared with standard drug benzyl penicillin (in words): less activity
Psuedomonas aeruginosa [4]; [11]
  Diameter of zone of inhibition, P. aeruginosa: 11 mm
Staphylococcus aureus [5]
  activity against S. aureus when compared with standard drug benzyl penicillin (in words): moderate activity
Staphylococcus aureus [5]; [11]
  Diameter of zone of inhibition, S. auereus: 21 mm
Bacillus subtilis [6]; 1.56 μg/ml
  Presence or absence of growth: +
Bacillus subtilis [6]; 3.13 μg/ml
  Presence or absence of growth: +
Bacillus subtilis [6]; 6.25 μg/ml
  Presence or absence of growth: +
Bacillus subtilis [6]; 12.5 μg/ml
  Presence or absence of growth: +
Bacillus subtilis [6]; 25 μg/ml
  Presence or absence of growth: +
Bacillus subtilis [6]; 50 μg/ml
  Presence or absence of growth: –
Bacillus subtilis [6]; 100 μg/ml
  Presence or absence of growth: –
Candida albicans [7]; 1.56 μg/ml
  Presence or absence of growth: +
Candida albicans [7]; 3.13 μg/ml
  Presence or absence of growth: +
Candida albicans [7]; 6.25 μg/ml
  Presence or absence of growth: +
Candida albicans [7]; 12.5 μg/ml
  Presence or absence of growth: +
Candida albicans [7]; 25 μg/ml
  Presence or absence of growth: +
Candida albicans [7]; 50 μg/ml
  Presence or absence of growth: –
Candida albicans [7]; 100 μg/ml
  Presence or absence of growth: –
Escherichia coli [8]; 1.56 μg/ml
  Presence or absence of growth: +
Escherichia coli [8]; 3.13 μg/ml
  Presence or absence of growth: +
Escherichia coli [8]; 6.25 μg/ml
  Presence or absence of growth: +
Escherichia coli [8]; 12.5 μg/ml
  Presence or absence of growth: +
Escherichia coli [8]; 25 μg/ml
  Presence or absence of growth: +
Escherichia coli [8]; 50 μg/ml
  Presence or absence of growth: +
Escherichia coli [8]; 100 μg/ml
  Presence or absence of growth: –
Psuedomonas aeruginosa [9]; 1.56 μg/ml
  Presence or absence of growth: +
Psuedomonas aeruginosa [9]; 3.13 μg/ml
  Presence or absence of growth: +
Psuedomonas aeruginosa [9]; 6.25 μg/ml
  Presence or absence of growth: +
Psuedomonas aeruginosa [9]; 12.5 μg/ml
  Presence or absence of growth: +
Psuedomonas aeruginosa [9]; 25 μg/ml
  Presence or absence of growth: +
Psuedomonas aeruginosa [9]; 50 μg/ml
  Presence or absence of growth: +
Psuedomonas aeruginosa [9]; 100 μg/ml
  Presence or absence of growth: –
Staphylococcus aureus [10]; 1.56 μg/ml
  Presence or absence of growth: +
Staphylococcus aureus [10]; 3.13 μg/ml
  Presence or absence of growth: +
Staphylococcus aureus [10]; 6.25 μg/ml
  Presence or absence of growth: +
Staphylococcus aureus [10]; 12.5 μg/ml
  Presence or absence of growth: +
Staphylococcus aureus [10]; 25 μg/ml
  Presence or absence of growth: +
Staphylococcus aureus [10]; 50 μg/ml
  Presence or absence of growth: +

## OC(Cn1cncn1)(Cn1cncn1)c1ccc(F)cc1F [Fluconazole, fluconazole, reference compound]
Bacillus subtilis [1]; [11]
  Diameter of zone of inhibition, B. Subtilis: -
Candida albicans [2]; Candida albicans, 24 h at 37°, DMF solvent control, read-out: Diameter of zone of inhibition, C. albicans
  zone of inhibition at 50 µg/mL: 20 mm
Escherichia coli [3]; [11]
  Diameter of zone of inhibition, E. coli: -
Psuedomonas aeruginosa [4]; [11]
  Diameter of zone of inhibition, P. aeruginosa: -
Staphylococcus aureus [5]; [11]
  Diameter of zone of inhibition, S. auereus: -

## CC1(C)S[C@@H]2[C@H](NC(=O)Cc3ccccc3)C(=O)N2[C@H]1C(=O)O [Benzyl Penicillin, Benzyl penicillin, reference compound]
Bacillus subtilis [1]; Bacillus subtilis, 24 h at 37°, DMF solvent control, read-out: Diameter of zone of inhibition, B. Subtilis
  zone of inhibition at 50 µg/mL: 15 mm
Candida albicans [2]; [11]
  Diameter of zone of inhibition, C. albicans: -
Escherichia coli [3]; Escherichia coli, 24 h at 37°, DMF solvent control, read-out: Diameter of zone of inhibition, E. coli
  zone of inhibition at 50 µg/mL: 16 mm
Psuedomonas aeruginosa [4]; Pseudomonas aeruginosa, 24 h at 37°, DMF solvent control, read-out: Diameter of zone of inhibition, P. aeruginosa
  zone of inhibition at 50 µg/mL: 17 mm
Staphylococcus aureus [5]; Staphylococcus aureus, 24 h at 37°, DMF solvent control, read-out: Diameter of zone of inhibition, S. auereus
  zone of inhibition at 50 µg/mL: 25 mm
